Data reported in US10233415B1, “Microfluidics cell culture device” (The Regents of the University of California, priority 2013, dated 2019).
pEC50, pIC50: −log10 of the molar value. Read-outs that look alike come from different tables or passages of the source. Each block holds one compound with its values, some of them ahead of it.

Assays:
[1] = test system: hiPSC-CM derived cardiac tissue (WTC CMs) in the cardiac MPS; test: Cardiac MPS beat rate (motion tracking) drug response; format: cell-based, human; settings: for effect on beats per minute (BPM): dose response
Description: A cardiac MPS that incorporates an in vitro 3D model of the human myocardium consisting of aligned CMs derived from hiPS cells was designed, fabricated and characterized with various in and ex situ monitoring tools. […] To characterize the functionality of the cardiac model, a motion tracking method capable of massive parallelization and high throughput analysis based on bright field microscopy as well as a custom made MEA enabling electrophysiological measurements inside the MPS was developed.
As an alternative to MEAs, a computational motion tracking method capable of performing high throughput analysis was developed. The computational motion tracking method analyzed the beating motion of cardiac tissue based on simple bright field movies (FIGS. 6A-C).
Drugs from classes that target a different physiological effect (i.e. ion channel, stimulant) were chosen, and the IC50 or EC50 values were determined.

[2] = test system: LQT3 hiPSC-CM derived cardiac tissue in the MPS; test: LQT3 cardiac tissue in the MPS, beat frequency response; format: cell-based, human
Experimental: When fed continuously the tissue remained viable and functional for more than one month. Healthy and LQTS hiPSC-CM-derived cardiac tissue in the MPS were viable and amenable to continuous monitoring (e.g., MEA) and sampling for over 4 weeks. Beating tissues were created and loaded from multiple iPS cell lines, a disease cell line (LQT3), and the GCaMP6 isogenic reporter cell line.
FIG. 7. […] (B) Time dependent effect of 1 μM Isoproterenol (ISO) on bpm. * p<0.05 vs baseline.

adult human slice = adult human slice contractility; read-out: EC50 for the effect on adult human slice contractility; cited from earlier work

- pEC50 ([1]; Homo sapiens, cardiac MPS, beat rate, read-out: EC50, concentration dependent increase on absolute beating (beats per minute)): 6.50
Structure (SMILES): CC(C)NCC(O)c1ccc(O)c(O)c1 (stereo not drawn) [Isoproterenol]
- effect on beats per minute (BPM) ([1]; cardiac MPS): dose-dependent increase
- beat rate ([1]; subsequent exposure to 1 μM, same device, after at least 48 hours wash): increased the beat rate
- beat frequency ([2]; 100 nM concentration): no effect
- beat frequency ([2]; 10 min exposure to 1 μM): approximately doubled
- pEC50 (adult human slice): 6.70 to 7.00

Structure (SMILES): COc1ccc(CCN(C)CCCC(C#N)(c2ccc(OC)c(OC)c2)C(C)C)cc1OC (stereo not drawn) [Verapamil]
- pIC50 ([1]; Homo sapiens, read-out: IC50, dose dependent decrease of beat rate / beats per minute): 6.02
- spontaneous beating ([1]; at high doses): abolished spontaneous beating
- effect on beats per minute (BPM) ([1]; cardiac MPS): dose-dependent decrease
- beat rate ([1]; exposure to 1 nM, multiple exposures on the same device): decreased the beat rate

- pIC50 ([1]; Homo sapiens, cardiac MPS, beat rate, read-out: IC50, dose dependent decrease of beat rate): 3.61
Structure (SMILES): COCCc1ccc(OCC(O)CNC(C)C)cc1 (stereo not drawn) [Metoprolol]

- pIC50 ([1]; cardiac MPS, beat rate, read-out: IC50, dose dependent decrease of beat rate / beats per minute): 6.41
Structure (SMILES): Cc1cccc(CCN2CCC(C(=O)c3ccc(NS(C)(=O)=O)cc3)CC2)n1 [E-4031]
